Literature values in article PMC8764166, “Phenolic-Rich Plant Extracts With Antimicrobial Activity: An Alternative to Food Preservatives and Biocides?” (Frontiers in Microbiology, 2022).
≈ marks a conversion by molar mass, not a printed value. Like-named read-outs stand apart in the source and are kept apart here.

Experiments:
[1] = test system: Enterococcus faecalis; conditions: for MIC against Enterococcus faecalis: ref Adamczak et al., 2020
[2] = test system: Pseudomonas aeruginosa; conditions: 2020
[3] = test system: Escherichia coli
[4] = test system: Salmonella Infantis; parameters: method as in Skroza et al., 2019; conditions: ref Skroza et al., 2019
[5] = test system: Staphylococcus aureus
[6] = test system: Salmonella typhimurium
[7] = test system: Bacillus cereus; conditions: for MIC against Bacillus cereus: ref Skroza et al., 2019
[8] = test system: S. aureus; conditions: up to 20% (w/w) proteins, 37°C, 15°C or 6°C; ref Bouarab-Chibane et al. (2018b)
[9] = test system: biofilms with undesirable food spoiling or foodborne pathogenic microorganisms; parameters: method as in the references listed per substance; conditions: the references listed per substance
[10] = test system: Bacillus subtilis; parameters: method as in Duggirala et al., 2014; conditions: ref Duggirala et al., 2014
[11] = test system: S. aureus; parameters: method as in Stojkovic et al., 2013; conditions: chicken soup, 4°C, within 3 days; ref Stojkovic et al., 2013
[12] = test system: L. monocytogenes; parameters: method as in Pernin et al., 2019; conditions: ref Pernin et al., 2019
[13] = test system: Salmonella enterica serovar Typhimurium; conditions: ref Alvarado-Martinez et al., 2020
[14] = ŽMJ 129 (clinical isolate), 10^5–10^6 cfu·ml^−1, Mueller Hinton broth, 24 h 37°C, ref Skroza et al., 2019

Row | SMILES | MIC against Enterococcus faecalis [1] [µg/mL] | MIC against P. aeruginosa ([2]; ref Adamczak et al.) [µg/mL] | MIC against E. coli ([3]; ref Adamczak et al., 2020) [µg/mL] | MIC against S. aureus ([5]; ref Adamczak et al., 2020) [µg/mL] | activity against biofilms [9] | also measured
1 | C[C@@H]1O[C@@H](O[C@@H]2[C@@H](O)[C@H](O)[C@@H](CO)O[C@H]2c2c(O)cc(O)c3c(=O)cc(-c4ccc(O)cc4)oc23)[C@H](O)[C@H](O)[C@H]1O [vitexin 2"-o-rhamnoside] | 1000 (≈ 1730 µM) | 500 (≈ 864 µM) | 500 (≈ 864 µM) |  |  | 
2 | COc1cc(C(=O)O)cc(OC)c1O [Syringic acid] |  |  |  |  |  | MIC against Salmonella Infantis [4]: 250 µg/mL (≈ 1260 µM); MIC against S. aureus ([5]; ref Skroza et al., 2019): 500 µg/mL (≈ 2520 µM); MIC against S. typhimurium ([6]; ref Phadungkit and Luanratana, 2006): S. typhimurium 0.0625 g·L^−1; MIC against Bacillus cereus [7]: 250 µg/mL (≈ 1260 µM); MIC against E. coli [3, 14]: 250 µg/mL (≈ 1260 µM)
3 | O=c1cc(-c2ccc(O)cc2)oc2cc(O)cc(O)c12 [Apigenin] | 1000 (≈ 3700 µM) | 500 (≈ 1850 µM) | 500 (≈ 1850 µM) | 500 to 1000 |  | 
4 | CN(C)c1ccc2nc3c(C(=O)O)cc(=O)c(O)c-3oc2c1 [gallocyanin] |  |  |  |  |  | antibacterial activity in the presence of bovine meat proteins [8]: kept its bactericidal activity at 37 °C up to a 5% (w/w) protein content in the medium, but not at 15 °C or 6 °C
5 | Oc1cccc(O)c1O [pyrogallol] |  |  |  |  | inhibit formation or to eradicate biofilms | 
6 | O=c1ccc2ccc(O)c(O)c2o1 [daphnetin] |  |  |  |  |  | length of bacteria [10]: increase in length of bacteria
7 | O=c1cc(-c2ccc(O)c(O)c2)oc2c([C@@H]3O[C@H](CO)[C@@H](O)[C@H](O)[C@H]3O)c(O)cc(O)c12 [Orientin] | 1000 (≈ 2230 µM) | 500 (≈ 1120 µM) | 500 (≈ 1120 µM) | 500 (≈ 1120 µM) |  | 
8 | O=c1cc(-c2ccc(O)c(O)c2)oc2cc(O)c([C@@H]3O[C@H](CO)[C@@H](O)[C@H](O)[C@H]3O)c(O)c12 [isoorientin] | 1000 (≈ 2230 µM) | 500 (≈ 1120 µM) | 500 (≈ 1120 µM) | 500 (≈ 1120 µM) |  | 
9 | Cc1ccc(O)c(O)c1 [4-methylcatechol] |  |  |  |  | inhibit formation or to eradicate biofilms | 
10 | Oc1ccc(/C=C/c2cc(O)cc(O)c2)cc1 [Resveratrol] |  |  |  |  |  | MIC against Salmonella Infantis [4]: 140 µg/mL (≈ 613 µM); MIC against S. aureus ([5]; ref Skroza et al., 2019): 70 µg/mL (≈ 307 µM); MIC against E. faecalis ([1]; ref del Valle et al., 2016): E. faecalis 0.12 g·L^−1; antibacterial activity in the presence of bovine meat proteins [8]: always lost their bacteriostatic activity; MIC against Bacillus cereus [7]: 70 µg/mL (≈ 307 µM); MIC against E. coli [3, 14]: 140 µg/mL (≈ 613 µM)
11 | C[C@@H]1O[C@@H](OC[C@H]2O[C@@H](Oc3c(-c4ccc(O)c(O)c4)oc4cc(O)cc(O)c4c3=O)[C@H](O)[C@@H](O)[C@@H]2O)[C@H](O)[C@H](O)[C@H]1O [Rutin] | 1000 (≈ 1640 µM) | 500 (≈ 819 µM) | 500 (≈ 819 µM) | 1000 (≈ 1640 µM) |  | concentration totally inhibiting growth of S. aureus [11]: – for concentrations above 0.23% (w/v), each phenolic totally inhibited the growth of S. aureus inoculated in chicken soup at 4 °C within 3 days
12 | COc1cc(C(=O)O)ccc1O [Vanillic acid] |  |  |  |  | inhibit formation or to eradicate biofilms | MIC against Salmonella Infantis [4]: 210 µg/mL (≈ 1250 µM); MIC against S. aureus ([5]; ref Skroza et al., 2019): 420 µg/mL (≈ 2500 µM); MIC against Salmonella typhimurium ([6]; ref Pacheco-Ordaz et al., 2017): 2500 µg/mL (≈ 14900 µM); MIC against Bacillus cereus [7]: 100 µg/mL (≈ 595 µM); mechanism of action against L. monocytogenes [12]: penetration or accumulation in the bacterial membrane of undissociated form; cell morphology [13]: observation of mid-division cells; membrane permeabilization [13]: membrane permeabilization; MIC against Escherichia coli ([3]; E. coli O157:H7 ATCC 43890, 2.5 10^6 cfu·ml^−1, Mueller Hinton broth, 24 h 37°C, ref Pacheco-Ordaz et al., 2017): 3400 µg/mL (≈ 20200 µM); MIC against E. coli [3, 14]: 100 µg/mL (≈ 595 µM)
13 | CC(C)=CCc1c(O)ccc2c1O[C@H]1c3ccc(O)cc3OC[C@@H]21 [Phaseollidin] |  |  |  |  |  | MIC against S. aureus ([5]; ref Sadgrove et al., 2020): 10 µg/mL (≈ 30.8 µM); MIC against P. aeruginosa ([2]; ref Sadgrove et al.): 20 µg/mL (≈ 61.7 µM); MIC against B. cereus ([7]; ref Sadgrove et al., 2020): 10 µg/mL (≈ 30.8 µM); MIC against E. coli ([3]; ref Sadgrove et al., 2020): 20 µg/mL (≈ 61.7 µM)
14 | O=c1cc(-c2ccccc2)oc2cc(O)cc(O)c12 [Chrysin] | 1000 (≈ 3930 µM) | 500 (≈ 1970 µM) | 500 (≈ 1970 µM) | 500 (≈ 1970 µM) |  | antibacterial activity in the presence of bovine meat proteins [8]: always lost their bacteriostatic activity
15 | CC(C)(C)c1ccc(O)c(O)c1 [4-tert-butylcatechol] |  |  |  |  | inhibit formation or to eradicate biofilms | 
16 | O=C(O)/C=C/c1ccccc1 [cinnamic acid] |  |  |  |  | inhibit formation or to eradicate biofilms | 
